Publication PMC1559639 (BMC Clinical Pharmacology, 2006)
“And” between values parts separate entries of the source, which are not always exact repeats. Equal values may be shown once. Read-outs that look alike come from different tables or passages of the source.

Legend:
[1] = Plasma kinetics after single oral dose of 300 mg Pycnogenol in healthy volunteers; type: in vivo, human; settings: for tmax: read-out: tmax (time of maximal plasma concentration); for half-life: read-out: term t½ (terminal half-life) (converted)
Procedure: Eleven volunteers (five female and six male) participated in this study. After a 24 hour diet free of flavonoids (no vegetables, fruits and fruit juices or marmalades, tea, coffee, cocoa, wine and beer) a venous blood catheter was inserted into an antecubital vein and blood samples were drawn to obtain basal values (t = 0 h at 8:00 a.m.). […] After each blood sampling mineral water was served. Blood samples were obtained at t = 0.5 h, 1 h, 2 h, 4 h, 6 h, 8 h, 10 h, 12 h and 14 h. Samples were centrifuged and plasma was aliquoted, shock frozen and stored at -80°C until further analysis.
(§1) Plasma samples of 2.0 mL were prepared for analysis. For determination of total plasma concentration, to each sample 20 U β-glucuronidase (type H-3 from Helix pomatia; EC 3.2.1.31) and 20 U sulfatase (type H-1 from Helix pomatia; EC 3.1.6.1) were added in 50 mM sodium acetate buffer (pH 5.0) and incubated for 2 h at 37°C under gentle shaking. Samples for determination of free plasma concentrations were prepared without prior incubation with enzymes. Each 20 μL of p-hydroxybenzoic acid methylester (100 μg/mL; for HPLC UV detection) and hydrochinone (10 μg/mL; for HPLC electrochemical detection) were added as internal standards and samples were acidified with 100 μL 1 M-HCl. Samples were extracted twice with each 3 mL acetic acid methylester for 20 min, using a roller mixer, followed by centrifugation (20°C) 5 min. The organic phases of both extractions were separated, combined and evaporated to dryness under a gentle stream of nitrogen at 25°C. The resulting residue was reconstituted in 100 μL methanol and subjected to HPLC analysis.
(§2) The HPLC system was a Waters HPLC (Milford, MA, USA) consisted of a 1525 binary pump, a 717plus autosampler, a 2487 dual wavelength absorbance detector set at the detection wavelength of 280 nm and an electrochemical detector CLC 100 (Chromsystems, Munich, Germany) set at an oxidation voltage of 0.5 V. The second detector was connected to the control system by a satellite interface (Waters). Data collection and integration were accomplished using Breeze™ software version 3.30. Analysis was performed on a Zorbax SB C8 column (150 × 4.6 mm I.D., 5 μm particle size, Agilent Technologies, Palo Alto, CA, USA).
(§3) Typically, 20 μL of sample were injected and separated at a flow rate of 1 mL/min. Isocratic elution was performed using water (containing 0.6 mM 1-octanesulfonic acid sodium salt, 0.27 mM ethylenediaminetetraacetic acid disodium salt, 0.04 M triethylamine; pH 2.95 adjusted with phosphoric acid) and acetonitrile (ACN, HPLC gradient quality, Fisher Scientific, Schwerte, Germany). Method A (for UV detection of ferulic acid, M2 (δ-(3-Methoxy-4-hydroxy-phenyl)-γ-valerolactone), U1, U2, U3, U4, U7, U8, and U9) used water/ACN at 85:15 (v/v).

[2] = cited from earlier work; for t½: reported previously
clinical = type: in vivo; settings: for % conjugated (mean degree of conjugation with sulfate and glucuronic acid): steady state plasma, mean of volunteers; for concentration at 4 h: both sexes, 200 mg
Procedure: Five volunteers (four female and one person) participated in this study. After a 24 hour diet free of flavonoids blood samples were drawn to obtain basal values. […] It was assumed that steady state plasma concentrations were reached after 5 days.
Four hours after the last intake of Pycnogenol on day five a second blood sample was obtained from each volunteer. Again, a 24 hour period of a diet free of flavonoids preceded this blood sampling. Blood samples were centrifuged and plasma was aliquoted, shock frozen and stored at -80°C until further analysis.
as §1, §2, §3

MMP-9 release = settings: in vitro / cell culture assays; read-out: IC50, inhibition of MMP-9 release; cited from earlier work
[3] = both sexes, human, plasma, po, 300 mg, human volunteers, single oral dose 300 mg Pycnogenol, total (free and conjugated) plasma, t = 14 h, mean ± SD, read-out: AUC [0-t]
[4] = both sexes, human, plasma, po, 300 mg, human volunteers, single oral dose 300 mg Pycnogenol, total plasma, mean ± SD, read-out: AUC [t-8]
[5] = both sexes, human, plasma, po, 300 mg, human volunteers, single oral dose 300 mg Pycnogenol, total plasma, mean ± SD, read-out: cmax (maximal plasma concentration)
[6] = both sexes, human, plasma, po, 300 mg, human volunteers, single oral dose 300 mg Pycnogenol, total plasma, mean ± SD
[7] = both sexes, human, plasma, po, 300 mg
[8] = human volunteers, single oral dose 300 mg Pycnogenol, total plasma, mean ± SD
[9] = both sexes, human, plasma, oral, 300 mg, single dose 300 mg Pycnogenol, total plasma, read-out: cmax converted to molar concentration
[10] = 200 mg Pycnogenol once daily for five days
[11] = human, plasma, oral, 200 mg Pycnogenol once daily for five days, 4 h after last dose, with sulfatase and glucuronidase, mean ± mean deviation, read-out: Total plasma concentration
[12] = human, plasma, oral, 200 mg Pycnogenol once daily for five days, 4 h after last dose, without enzyme incubation, read-out: Free plasma concentration
[13] = both sexes, human, plasma, oral, 300 mg

Compound | AUC(0-t) [1, 3] [ng·h/mL] | AUC(0-t) [1, 4] [ng·h/mL] | Cmax [1, 5] [ng/mL] | tmax [1, 6] [h] | half-life [1, 7] [h] | tmax (time of maximal plasma concentration) [1, 8] [h] | Cmax [1, 9] [nM] | cmax (maximal plasma concentration) [1, 8] [ng/mL] | % conjugated (mean degree of conjugation with sulfate and glucuronic acid) (clinical; [10]) | concentration at 4 h (clinical; [11]) [ng/mL] | further results
O=C1c2c(O)cc(O)cc2O[C@H](c2ccc(O)c(O)c2)[C@H]1O (racemic) [Taxifolin, (±)-taxifolin] | 231 ± 86 | 399 ± 99 | 33.3 ± 12.5 | 8 | 8.89 ± 2.81 | 8.2 ± 2.5 | – | – | – | – | –
O=C(O)Cc1ccc(O)c(O)c1 [3,4-dihydroxyphenylacetic acid] | – | – | – | – | – | – | – | – | – | – | detection of taxifolin degradation products in volunteers' plasma ([1]; after Pycnogenol intake): failed to detect
O=C(O)/C=C/c1ccc(O)c(O)c1 [Caffeic acid, caffeic acid] | 75.7 ± 33.5 | 82.8 ± 36.5 | ~17 | 3 to 4 | 4.42 ± 2.47 | 3.7 ± 2.4 | ~90 | 16.67 ± 13.29 | 69.4 ± 11.8% | 2.42 ± 1.39 | Cmax ([2]; after ingestion of 107 mg caffeic acid from artichoke leaf extract): 6.5 ng/mL; tmax ([2]; after ingestion of red wine): 2 h; Cmax ([2]; after intake of 55 μg caffeic acid per kg body weight, read-out: cmax): 84 nM; tmax ([2]; after intake of red wine, coffee or artichoke leaf extract): 0.5 to 1 h; t½ [2]: 3.08 ± 1.53 h; % conjugated (mean degree of conjugation with sulfate and glucuronic acid) (clinical; 200 mg Pycnogenol once daily for five days, listed as caffeic acid): 69.4% and 69%; concentration at 4 h (clinical; [12]): 0.56 ± 0.02 ng/mL; individual degree of conjugation (clinical; single volunteers, 200 mg Pycnogenol daily for five days): 59.6% and 61.5% and 87.6%
Oc1cc(O)c2c(c1)O[C@H](c1ccc(O)c(O)c1)[C@@H](O)C2 [Catechin, (+)-catechin] | – | – | ~100 | ≤ 3 | – | 3.2 ± 1.7 | ~370 | 107.22 ± 55.49 | – | 48.6 ± 16.7 | concentration at 0.5 h [1, 13]: ~60 ng/mL; concentration at 4 h [1, 13]: ~100 ng/mL; time window of detection of unchanged compound in plasma ([2]; after a high single dose): between 30 min and 12 h; free polyphenol concentration as share of total concentration ([2]; after a single dose of pure catechin): 1.1 to 6.5%; time by which plasma concentrations were not significantly different from baseline ([2]; after ingestion of pure catechin): ≤ 4 h; tmax ([2]; human plasma, after ingestion of red wine or reconstituted red wine): 1.5 h; concentration at 4 h (clinical; [12]): 21 ± 13.1 ng/mL; free catechin concentration (share of total) (clinical; both, human, in vivo, 4 h): about 56%
COc1cc(/C=C/C(=O)O)ccc1O [Ferulic acid, ferulic acid] | 99 ± 28.1 | 141 ± 73.9 | ~15 | – | 6.87 ± 3.83 | 1.2 ± 1.1 | ~75 | 14.78 ± 5.89 | ≈ 100% | – | tmax (time of maximal plasma concentration) ([1]; human volunteers, single oral dose 300 mg Pycnogenol, total plasma, mean ± SD, listed as ferulic acid): 0.5 to 1 h and 1 h; plasma concentrations ([2]; after ingestion of 250 mg ferulic acid from breakfast cereals): 150 to 210 nM; free ferulic acid (share) ([2]; after single ingestion of beer): around 25%; tmax ([2]; other report, ref 6): 0.77 h; tmax ([2]; other report, ref 27): 1 to 3 h; t½ [2]: 6.35 ± 2.95 h; concentration at 4 h (clinical; human, in vivo, read-out: Total plasma concentration): ~20 ng/mL
O=C1CCC(Cc2ccc(O)c(O)c2)O1 (centres unmarked) [M1, δ-(3,4-Dihydroxy-phenyl)-γ-valerolactone] | – | – | ~4 | ~10 | – | – | ~20 | – | ≈ 100% | 3.01 | time of first detection in plasma ([1]; after single dose 300 mg Pycnogenol, first sampling at 0.5 h): 6 h; mean concentration at peak ([1]; around 10 h after single dose 300 mg Pycnogenol, total plasma): 3.59 ng/mL; presence in plasma over the experimental period of 14 h ([1]; single dose 300 mg Pycnogenol): still present 14 h after Pycnogenol ingestion; IC50 (MMP-9 release): 0.5 µM; earliest appearance ([2]; after green tea ingestion): 3 h; time of peak plasma levels ([2]; after ingestion of green tea): 5 to 12 h
COc1cc(CC2CCC(=O)O2)ccc1O (centres unmarked) [M2, δ-(3-Methoxy-4-hydroxy-phenyl)-γ-valerolactone] | – | – | – | – | – | – | – | – | – | – | plasma concentration (not detected; lower limit of quantitation) ([1]; after single dose and repeated ingestion of Pycnogenol): < 50 ng/mL; IC50 (MMP-9 release): 0.5 µM
Oc1cc(O)cc(O)c1 [phloroglucin] | – | – | – | – | – | – | – | – | – | – | detection of taxifolin degradation products in volunteers' plasma ([1]; human, in vivo): failed to detect
